Earlier results on 2 molecules are cited in patent publication US20140171511A1, “Cough Reducing Product” (priority 2011, published 2014).

For data set [1] the following is noted: relative to capsaicin, used to calculate equivalent dose.
Data set [2] has as its system IBS and gut pain sensitivity. Particulars: regular intake of capsaicin powder.
The conditions of data set [3]: inhaled capsaicin as research tool, past 2 decades.

Take `COc1cc(CNC(=O)CCCC/C=C/C(C)C)ccc1O` [Capsaicin, 8-Methyl-N-vanillyl-trans-6-nonenamide]: the Typical equivalent strength in data set [1] is recorded as 100%. Also, the “IBS and gut pain sensitivity” value in data set [2] was “improvement”. The serious adverse reactions result in data set [3] is on record as “no serious adverse reactions reported”.
In the case of `COc1cc(CNC(=O)CCCCCC(C)C)ccc1O` [Nordihydrocapsaicin], in data set [1], the Typical equivalent strength is recorded as 10%.
